The values that follow come from EP3201178B1 (University of Hertfordshire Higher Education Corporation, priority 2014, dated 2016).

For assay [1], the target named is dopamine D2 receptors (Homo sapiens, UniProt P14416). Put plainly: binding affinity for the D2 DA receptor. The note with it: for affinity for dopamine D2 receptors: result in words.
The subject of assay [2] is SH-SY5Y cells. The note with it: Tovilovic et al., 2012; cited from earlier work.
The subject of assay [3] is ventral mesencephalic neurones. Nature of the assay: calcein AM fluorescence viability assay against lactacystin. The format is cell-based, rat. The following applies: 5 µM lactacystin; for protection against lactacystin in calcein AM fluorescence assay: compound concentrations 0.1 to 1 µM; for neuroprotection against lactacystin in calcein AM fluorescence assay at higher concentrations: compound concentrations 10 to 100 µM; for viability of ventral mesencephalic neurones, calcein AM assay (Figure 6 legend): low to medium concentrations of compound. An excerpt:
(§1) • Figure 1 illustrates Scheme 1, the synthetic route and chemical structures N-{4-[2-(4-aryl-piperazin-1-yl)-ethyl]-phenyl}-arylsulphonamides, N-{3-[2-(4-aryl-piperazin-1-yl)-ethyl]-phenyl}-arylsulphonamides and N-{2-[2-(4-aryl-piperazin-1-yl)-ethyl]-phenyl}-arylsulphonamides; • Figure 2 illustrates Scheme 2 the synthetic route and chemical structures of the N-{4-[2-(4-aryl-piperazin-1-yl)-methyl]-phenyl}-arylsulphonamides, N-{3-[2-(4-aryl-piperazin-1-yl)-methyl]-phenyl}-arylsulphonamides and N-{2-[2-(4-aryl-piperazin-1-yl)-methyl]-phenyl}-arylsulphonamides; • Figure 3 illustrates Table 1 illustrating the chemical structure and binding affinity of the some new arylpiperazine-sulphonamides for the D2 DA and 5-HT1A receptors; • Figure 4 illustrates the effect of compounds 1 and 2 on motor clinical scores; • Figure 5 illustrates the viability of rat ventral mesencephalic cells in culture following administration of proteasomal inhibitor lactacystin (5µM) using MTT assay. Compound 4h (4207) and 4f (4295) are protective against the effect of lactacystin in this model; and • Figure 6 illustrates the viability of ventral mesencephalic neurones using calcein AM assay.

The test system of assay [4] is rat primary ventral mesencephalic neurones. Nature of the assay: MTT viability assay, lactacystin cytotoxicity on primary ventral mesencephalic neurones. The format is cell-based. The note with it: lactacystin 5µM, rat ventral mesencephalic cells in culture.
Source text: as §1
(In general: Formazan colour is commonly taken as a measure of viable cells.)

Assay [5] has as its target T1, 5-HT1a receptors (Homo sapiens, UniProt P08908).
T1 sequence (P08908 1-422): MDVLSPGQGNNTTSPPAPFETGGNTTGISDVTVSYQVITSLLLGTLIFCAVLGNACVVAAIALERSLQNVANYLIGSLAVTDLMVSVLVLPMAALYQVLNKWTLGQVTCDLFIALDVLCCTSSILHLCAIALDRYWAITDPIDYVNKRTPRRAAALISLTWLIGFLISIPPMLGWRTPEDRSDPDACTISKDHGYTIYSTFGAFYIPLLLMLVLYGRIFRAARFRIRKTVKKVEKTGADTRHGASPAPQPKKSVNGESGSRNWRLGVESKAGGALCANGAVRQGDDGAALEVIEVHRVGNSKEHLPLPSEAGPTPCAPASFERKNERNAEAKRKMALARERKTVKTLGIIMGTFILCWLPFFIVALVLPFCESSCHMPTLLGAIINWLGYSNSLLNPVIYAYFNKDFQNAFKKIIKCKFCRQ
Nature of the assay: binding affinity for the 5-HT1A receptor.

Each structure is given as a SMILES string.

dopamine D2 receptors, sequence (P14416 whole entry): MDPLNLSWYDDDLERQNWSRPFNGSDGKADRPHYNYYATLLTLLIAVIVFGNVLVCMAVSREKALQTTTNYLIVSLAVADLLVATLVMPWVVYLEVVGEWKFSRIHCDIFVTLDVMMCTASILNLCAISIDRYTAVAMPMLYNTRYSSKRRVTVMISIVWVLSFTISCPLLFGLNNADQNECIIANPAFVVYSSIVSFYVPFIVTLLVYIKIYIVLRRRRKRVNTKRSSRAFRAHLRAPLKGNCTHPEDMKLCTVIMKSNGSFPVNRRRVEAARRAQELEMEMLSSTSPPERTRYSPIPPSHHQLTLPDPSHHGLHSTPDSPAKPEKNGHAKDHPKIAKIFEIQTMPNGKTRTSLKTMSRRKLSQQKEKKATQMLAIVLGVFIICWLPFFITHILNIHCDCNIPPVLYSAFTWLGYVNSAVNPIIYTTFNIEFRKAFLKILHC

Turning to `O=C(Nc1ccc(CCN2CCN(c3ccccc3)CC2)cc1)c1ccccn1` [Compound 1, N-{4-[2-(4-phenyl-piperazin-1-yl)ethyl]-phenyl}-picolinamide, reference compound], the “affinity for dopamine D2 receptors” value in assay [1] was “moderate affinity”. The “preventing mitochondrial damage and apoptosis induced by nitric oxide (NO)” value in assay [2] was “most active”.

As to `O=C(Nc1cccc(CCN2CCN(c3ccccc3)CC2)c1)c1ccccn1` [Compound 2, N-{3-[2-(4-phenyl-piperazin-1-yl)ethyl]-phenyl}-picolinamide, reference compound], the “affinity for dopamine D2 receptors” value in assay [1] was “moderate affinity”. The “preventing mitochondrial damage and apoptosis induced by nitric oxide (NO)” value in assay [2] was “most active”.

With `O=S(=O)(Nc1ccc(CCN2CCN(c3ccccc3)CC2)cc1)c1ccccn1` [Compound 4f, N-{4-[2-(4-phenyl-piperazin-1-yl)-ethyl]-phenyl}-2-pyridylsulphonamide], in assay [3], the “protection against lactacystin in calcein AM fluorescence assay” value is given as “afford protection”; the “neuroprotection against lactacystin in calcein AM fluorescence assay at higher concentrations” value was “neuroprotection was reversed”; the “viability of ventral mesencephalic neurones, calcein AM assay (Figure 6 legend)” value is listed as “reversed cell death”. In assay [1], the Ki (in general, the equilibrium dissociation constant of an inhibitor or competing ligand from its target) stood at 4.43 nM. Further, the “protection of dopaminergic neurons against lactacystin (cell viability, MTT assay)” value (from here on “protection of dopaminergic neurons”) in assay [4] is “protective”. Also, in assay [4] (listed as 4295), the “protection of dopaminergic neurons” value was “markedly protected”.

Take `Cl.O=S(=O)(Nc1cccc(CCN2CCN(c3ccccc3)CC2)c1)c1cccnc1` [Compound 4h, N-{3-[2-(4-phenyl-piperazin-1-yl)-ethyl]-phenyl}-3-pyridylsulphonamide hydrochloride]: in assay [3], the “protection against lactacystin in calcein AM fluorescence assay” value is “afford protection”; the “neuroprotection against lactacystin in calcein AM fluorescence assay at higher concentrations” value is given as “neuroprotection was reversed”; the “viability of ventral mesencephalic neurones, calcein AM assay (Figure 6 legend)” value is on record as “reversed cell death”. Further, in assay [1], the “affinity for dopamine D2 receptors” value is listed as “little or no affinity”. Besides, the affinity in assay [5] corresponds to a Ki of 6.88 nM. Moreover, the “protection of dopaminergic neurons” value in assay [4] (hydrochloride) is recorded as “protective”. Also, the “protection of dopaminergic neurons” value in assay [4] (listed as 4207, hydrochloride) is reported as “most protection”.

`Cl.O=S(=O)(Nc1cccc(CCN2CCN(c3ccccc3)CC2)c1)c1cccnc1` [Compound 4208, N-{3-[2-(4-phenyl-piperazin-1-yl)-ethyl]-phenyl}-3-pyridylsulphonamide hydrochloride]: the “protection of dopaminergic neurons” value in assay [4] (hydrochloride) was “markedly protected”.

On to `O=S(=O)(Nc1cccc(CCN2CCN(c3ccccc3)CC2)c1)c1ccccn1` [Compound 4298], for which, in assay [4], the “protection of dopaminergic neurons” value is on record as “markedly protected”.
